How the values were obtained:
[1] = tested on: brain extracellular 5-HT; experiment: Microdialysis, extracellular 5-HT in hippocampus; type: in vivo, mice
Method: The microdialysis probe was connected to a perfusion pump (CMA/100, CMA Microdialysis Ltd.) and perfused (2 μl min^−1) continuously with artificial CSF (140 mM NaCl, 3 mM KCl, 1.2 mM Na2HPO4, 0.27 mM NaH2PO4, 1 mM MgCl2, 2.4 mM CaCl2 and 7.2 mM glucose). After 2 h perfusate samples were collected every 20 min and analysed immediately by HPLC with electrochemical detection (see below).
Once 3 consecutive baseline samples were stable, mice received a single injection of ebselen (10 mg kg^−1 i.p.) or vehicle. Citalopram (5 mg kg^−1 i.p.) was administered 1 h later and dialysates were collected for a further 2 h. At the end of each experiment, brains were removed and probe placement was confirmed by histological examination.
(§1) Both mcrodialysates (20 μl) and brain tissue supernatants (50 μl) were analysed by an HPLC system, comprising a silica-based, reversed phase column (3.0 μm ODS2, 4.6 mm×100 mm, Waters Ltd) coupled to an electrochemical detector (glass carbon working electrode versus Ag/AgCl reference; LC-4C, Bioanalytical systems). For microdialysates, analytes were separated at room temperature by an isocratic mobile phase comprising 12.5% (v/v) methanol, 0.13 M NaHPO4.H2O, 0.025 mM octane sulphonic acid, 0.85 mM EDTA and 2 mM NaCl at pH 3.5, and with the working electrode set at +0.7 V.

[2] = tested on: 5-HT2A receptor; experiment: DOI-evoked head-twitch (HTR) and ear scratch (ESR) behavioural responses; type: in vivo, mice; conditions: for DOI-evoked ESR / DOI-evoked HTR: vs DOI alone
[3] = tested on: 5-HT2A receptor; experiment: DOI-evoked IEG (c-fos, Arc, egr2 mRNA) expression, in situ hybridization; type: in vivo, mice
Method: In separate molecular studies, central 5-HT2A receptor function was assessed by measuring DOI-induced mRNA expression of the IEG c-fos, as well as complementary IEGs Arc and egr2 in cortical regions (Gonzalez-Maeso et al., 2007; Jennings et al., 2008). The challenge dose of DOI (2 mg kg^−1 i.p.) was selected on the basis of preliminary dose response studies and evidence that DOI-evoked IEG expression was blocked by a selective 5-HT2A receptor antagonist (Jennings et al., 2008).
Mice were randomly allocated to one of the following treatments (6 mice per group); i) acute ebselen (10 mg kg^−1 i.p.) or vehicle, ii) repeated lithium (3 days; 10 mmol kg^−1 i.p. on day 1, 3 mmol kg^−1 i.p. twice daily on days 2-3) or vehicle. Drug doses and pre-treatment times were selected as noted above; ebselen (1 h), lithium (18 h). Groups of mice were acclimatised to a procedure room for 4 h prior to each experiment. […]
c-Fos, Arc and egr2 mRNA was measured on tissue sections using in situ hybridization (Jennings et al., 2008). […]
Optical density measurements were obtained from the autoradiograms using computer-based image analysis (MCID software). Optical density readings were converted in nCi g^−1 of tissue by calibration with the use of [^14C] microscales, which were co-exposed with the slides. […]

[4] = clinical trials for ischemic stroke (Yamaguchi et al 1998); cited from earlier work
[5] = rats; cited from earlier work
[6] = Tissue levels of 5-HT, 5-HIAA and tryptophan; type: in vivo, mouse; conditions: 1 h post-drug
Method: (§2) The level of 5-HT synthesis in frontal cortex and hippocampus was obtained by measuring the accumulation of 5-HTP following inhibition of aromatic amino acid decarboxylase. Mice (n=6 per group) were administered ebselen (0.5, 1 or 5 mg kg^−1 i.p.) or vehicle and 1 h later animals were injected with the aromatic amino acid decarboxylase inhibitor NSD1015 (100 mg kg^−1 i.p.). Mice were then culled by cervical dislocation 30 min following NSD1015 and brain tissue was removed and stored at −80° C. Separate experiments measured levels of 5-HT, 5-HIAA and tryptophan in cortex and hippocampus. Mice (n=6 per group) were administered ebselen (0.5, 1 or 5 mg kg^−1 i.p.) or vehicle and then culled by cervical dislocation 1 h post-drug. Brain tissue was dissected out and stored at −80° C. prior to neurochemical analysis.
(§3) On the day of neurochemical analysis, tissue pieces (˜20 mg) of frozen frontal cortex and hippocampus were placed in Eppendorf tubes containing 500 μl perchloric acid (0.09 M) and homogenised using a polytron kinetic homogeniser (15000 rpm for 10 sec). Tissue homogenates were then centrifuged (1000 rpm for 10 min) and the supernatant was transferred in a new Eppendorf tube, protected from light, and kept on ice before analysis using HPLC with electrochemical detection (see below).
as §1
(§4) For measurement of 5-HT, 5-HIAA and tryptophan in brain tissue supernatants, analytes were separated at room temperature by an isocratic mobile phase comprising an isocratic mix of 15% (v/v) methanol, 2 mM 1-octanesulphonic acid, 0.12 M NaHPO4.H2O, 2 mM NaCl, and 0.1 mM EDTA at pH 3.7 with the working electrode set at +0.85V. For measurement of 5-HTP the mobile phase was adjusted to pH 3.4.

[7] = reported in WO 2012/107735; cited from earlier work
[8] = tested on: 5-HT2A receptor binding sites; experiment: Receptor autoradiography, [3H]-ketanserin binding sites in frontal cortex after treatment; type: in vivo, mouse
Method: The effect of ebselen and lithium treatment on the abundance of cortical 5-HT2A receptor binding sites was measured using receptor autoradiography. Mice were randomly allocated to one of the following treatments (6 mice per group); i) acute ebselen (10 mg kg^−1 i.p.) or vehicle, ii) repeated ebselen (10 mg kg^−1 i.p., twice daily for 7 days; last injection morning of the 8th day) or vehicle, and iii) repeated lithium (7 days; 10 mmol kg^−1 i.p. on day 1, 3 mmol kg^−1 i.p. twice daily on days 2-7) or vehicle.
Tissue sections (12 μm) were cryostat-cut at the level of the frontal cortex and stored in −80° C. On the day of the experiment, sections were incubated (at room temperature) in Tris-HCl buffer (0.17 M, pH 7.7) for 20 min, and then for 2 h with either 2 nM [^3H]-ketanserin (PerkinElmer) to determine total binding, or 2 nM [^3H]-ketanserin plus 10 μM methysergide to determine non-specific binding. Sections were then washed twice for 10 min with ice-cold 4° C. Tris-HCl buffer (0.17 M, pH 7.7), followed by double deionised water. Finally, slides were air-dried overnight before being exposed to autoradiographic films (BioMax MR, Kodak) for 12 weeks.
Optical density measurements were obtained from the autoradiograms as described above. […] Specific binding was calculated by subtracting non-specific binding from total binding. […]

[9] = tested on: 5-HT synthesis; experiment: 5-HT synthesis (5-HTP accumulation after NSD1015); type: in vivo, mouse
Method: as §2, §3, §1, §4

[10] = tested on: 5-HT2A receptor; experiment: Psilocin-evoked head-twitch response (HTR); type: in vivo, mice; conditions: ebselen pretreatment; psilocin 2 mg kg^-1 i.p.
[11] = L-690,330 150 or 240 mg kg^-1 i.p. pretreatment
[12] = AR-A014418 10 or 20 mg kg^-1 i.p. pretreatment
[13] = acute ebselen 1, 5 or 10 mg kg^-1 i.p., DOI 2 mg kg^-1 i.p.
[14] = repeated ebselen 10 mg kg^-1 i.p. for 7 days

For `CN(C)CCCC1(c2ccc(F)cc2)OCc2cc(C#N)ccc21` (stereo not shown) [citalopram, reference compound], the “Peak increase of 5-HT in hippocampal microdialysates above pre-drug values” ([1]; citalopram 5 mg kg^-1 i.p., 60 min post injection, awake mice) was “approximately 450%”.
For `CC(Oc1ccc(O)cc1)(P(=O)(O)O)P(=O)(O)O` [L-690,330, [1-(4-hydroxyphenoxy)ethylidene]bisphosphonic acid, reference compound], the “DOI-evoked ESR” value [2, 11] was “decreased” and the “DOI-evoked HTR” value [2, 11] was “decreased”.
For `COc1ccc(CNC(=O)Nc2ncc([N+](=O)[O-])s2)cc1` [AR-A014418, N-[(4-methoxyphenyl)methyl]-N′-(5-nitro-2-thiazolyl) urea, reference compound], the “DOI-induced ESR” value [2, 12] was “did not affect” and the “DOI-induced HTR” value [2, 12] was “did not affect”.
In the case of `COc1cc(CC(C)N)c(OC)cc1I` (stereo not shown) [DOI, 1-(2,5-dimethoxy-4-iodophenyl)-propan-2-amine, reference compound], the “Increase in IEG mRNA above vehicle-injected controls” value ([3]; DOI 2 mg kg^-1 i.p., selected brain regions) was 50-200%.
In the case of `O=c1c2ccccc2[se]n1-c1ccccc1` [Ebselen, 2-phenyl-1,2-benzisoselenazol-3(2H)-one], the “Toxicity in humans at pharmaceutically effective dosages” value [4] is listed as “sufficiently non-toxic”, the LD50 [5] is listed as “greater than 1000 mg/kg” and the “DOI-evoked ESR” value [2, 13] is listed as “dose-related decrease”. For the same compound, the “DOI-evoked HTR” value [2, 13] was “dose-related decrease”, the “Inhibitory effect on DOI-evoked ESR” value [2, 14] was “persisted” and the “Inhibitory effect on DOI-evoked HTR” value [2, 14] was “persisted”. The “5-HIAA Cortex” value ([6]; ebselen 0.5 mg kg^-1 i.p.) was 83.3 ± 14.4 % of vehicle, the “5-HIAA Hippocampus” value ([6]; ebselen 0.5 mg kg^-1 i.p.) was 129.8 ± 12.9 % of vehicle and the “5-HT Cortex” value ([6]; ebselen 0.5 mg kg^-1 i.p.) was 158.1 ± 14.7 % of vehicle. For the same compound, the “5-HT Hippocampus” value ([6]; ebselen 0.5 mg kg^-1 i.p.) was 234.4 ± 23.9 % of vehicle, the “Tryptophan Cortex” value ([6]; ebselen 0.5 mg kg^-1 i.p.) was 105.0 ± 10.3 % of vehicle and the “Tryptophan Hippocampus” value ([6]; ebselen 0.5 mg kg^-1 i.p.) was 210.2 ± 35.1 % of vehicle. For the same compound, the “5-HIAA Cortex” value ([6]; ebselen 1 mg kg^-1 i.p.) was 75.9 ± 6.3 % of vehicle, the “5-HIAA Hippocampus” value ([6]; ebselen 1 mg kg^-1 i.p.) was 141.0 ± 9.5 % of vehicle and the “5-HT Cortex” value ([6]; ebselen 1 mg kg^-1 i.p.) was 148.6 ± 11.2 % of vehicle. The “5-HT Hippocampus” value ([6]; ebselen 1 mg kg^-1 i.p.) was 225.9 ± 14.3 % of vehicle, the “Tryptophan Cortex” value ([6]; ebselen 1 mg kg^-1 i.p.) was 122.7 ± 20.6 % of vehicle and the “Tryptophan Hippocampus” value ([6]; ebselen 1 mg kg^-1 i.p.) was 128.5 ± 13.6 % of vehicle. The “5-HIAA Cortex” value ([6]; ebselen 5 mg kg^-1 i.p.) was 88.7 ± 3.8 % of vehicle, the “5-HIAA Hippocampus” value ([6]; ebselen 5 mg kg^-1 i.p.) was 139.2 ± 17.0 % of vehicle and the “5-HT Cortex” value ([6]; ebselen 5 mg kg^-1 i.p.) was 130.9 ± 4.8 % of vehicle. For the same compound, the “5-HT Hippocampus” value ([6]; ebselen 5 mg kg^-1 i.p.) was 189.4 ± 21.4 % of vehicle, the “Tryptophan Cortex” value ([6]; ebselen 5 mg kg^-1 i.p.) was 131.9 ± 14.5 % of vehicle and the “Tryptophan Hippocampus” value ([6]; ebselen 5 mg kg^-1 i.p.) was 135.4 ± 17.2 % of vehicle. For the same compound, the “IEG responses to DOI (Arc, c-fos, egr-2 mRNA)” value ([3]; ebselen 10 mg kg^-1 i.p., cingulate and somatosensory cortex (Arc, c-fos), caudate nucleus and endopiriform cortex (egr-2)) was “attenuated”, the “Transfer across the blood/brain barrier” value [7] was “capable of transferring across the blood/brain barrier” and the “[^3H]-Ketanserin binding sites” value ([8]; acute ebselen 10 mg kg^-1 i.p. (2h), vehicle 4.33 ± 0.66) was 3.36 ± 0.38 nCi g^-1 of tissue. For the same compound, the “[^3H]-Ketanserin binding sites” value ([8]; repeated ebselen 10 mg kg^-1 i.p. (7 days), vehicle 6.60 ± 0.27) was 6.12 ± 0.63 nCi g^-1 of tissue, the “Effect of citalopram on extracellular 5-HT after ebselen pretreatment” value ([1]; ebselen 10 mg kg^-1 i.p. 1 h before citalopram 5 mg kg^-1 i.p., greatest effect 20-40 min post citalopram) was “enhanced” and the “Extracellular 5-HT, ebselen alone” value ([1]; ebselen 10 mg kg^-1 i.p., vs vehicle-injected controls) was “no effect”. For the same compound, the “5-HTP Cortex” value ([9]; ebselen 0.5 mg kg^-1 i.p.) was 109.7 ± 10.6 % of vehicle, the “5-HTP Hippocampus” value ([9]; ebselen 0.5 mg kg^-1 i.p.) was 87.9 ± 14.6 % of vehicle and the “5-HTP Cortex” value ([9]; ebselen 1 mg kg^-1 i.p.) was 100.4 ± 3.7 % of vehicle. The “5-HTP Hippocampus” value ([9]; ebselen 1 mg kg^-1 i.p.) was 95.6 ± 6.5 % of vehicle, the “5-HTP Cortex” value ([9]; ebselen 5 mg kg^-1 i.p.) was 202.5 ± 15.0 % of vehicle and the “5-HTP Hippocampus” value ([9]; ebselen 5 mg kg^-1 i.p.) was 152.6 ± 9.0 % of vehicle. The “Psilocin-induced HTR” value [10] was “decreased”.

From patent US11707453B2, “Treatment of unipolar depressive disorder” (OXFORD UNIVERSITY INNOVATION LIMITED, priority 2017, dated 2023)
